Measurements published in the supplement of paper PMC10307832.

What was measured:
Test in all cases: relative viability (nuclei count vs DMSO), 5 days (fraction); higher = more cells survive
[1] = compound: O=C(c1cc(Cc2n[nH]c(=O)c3ccccc23)ccc1F)N1CCN(C(=O)C2CC2)CC1 [Olaparib]
In short: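 Viability is treated-well nuclei as a fraction of vehicle-well nuclei, reported as the median across plates. Before counting, lung cancer cell lines were kept overnight at 37 °C in 1536-well plates, pinned with five √10-spaced library-drug doses on vehicle-anchored plates, and left 5 days without medium change, then fixed, permeabilised and Hoechst-stained in one step, imaged at 4× and counted by MetaXpress. A plate passed only if control CV was below 25% and at least one doubling occurred.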

[2] = compound: C[C@@H](Oc1cc(-c2cnn(C3CCNCC3)c2)cnc1N)c1c(Cl)ccc(F)c1Cl [Crizotinib] + C[C@]1(O)C[C@@H](c2nc(-c3ccc4ccc(-c5ccccc5)nc4c3)c3c(N)nccn32)C1 [Linsitinib] (partner 1 µM)
In short: (§1)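 The day after seeding in 1536-well plates, lung cancer cell lines were treated by pin tool with a single drug, or with a fixed anchor-drug dose together with five library-drug doses (not always all listed) in √10 steps. After 5 days, a combined fix-and-stain solution (final 0.05% Triton X-100, 1% formaldehyde, 1 ug/ml Hoechst) was added. Nuclei counted on 4× images gave relative viability as treated counts over vehicle counts, reported as the median of duplicate plates.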

[3] = compound: C[C@@H](Oc1cc(-c2cnn(C3CCNCC3)c2)cnc1N)c1c(Cl)ccc(F)c1Cl [Crizotinib] + CC(C)C[C@H](NC(=O)[C@H](Cc1ccccc1)NC(=O)c1cnccn1)B(O)O [Bortezomib] (partner 0.002 µM)
In short: as §1

| Cell Line | relative viability ([1]; 0.08 µM) | relative viability ([1]; 0.253 µM) | relative viability ([1]; 2.53 µM) | relative viability ([1]; 8 µM) | relative viability ([1]; 8 µM, anchor plate) | relative viability ([2]; first compound 0.01 µM) | relative viability ([2]; first compound 0.03162 µM) | relative viability ([2]; first compound 0.1 µM) | relative viability ([2]; first compound 0.3162 µM) | relative viability ([2]; first compound 1 µM) | relative viability ([3]; first compound 0.01 µM) | relative viability ([3]; first compound 0.03162 µM) | relative viability ([3]; first compound 0.1 µM) | relative viability ([3]; first compound 0.3162 µM) | relative viability ([3]; first compound 1 µM) |
| --- | --- | --- | --- | --- | --- | --- | --- | --- | --- | --- | --- | --- | --- | --- | --- |
| NCI-H2009 | 1.07 | 0.959 | 0.94 | 0.9 | 0.679 | 1.17 | 1.17 | 1.24 | 1.17 | 1.17 | 0.896 | 1.04 | 1.09 | 0.837 | 0.96 |
| NCI-H2023 | 0.98 | 0.944 | 0.901 | 0.685 | 0.478 | 0.734 | 0.592 | 0.6 | 0.486 | 0.515 | 0.813 | 0.964 | 0.88 | 0.647 | 0.806 |
| NCI-H2085 | 1.16 | 0.912 | 0.983 | 0.959 | 0.769 | 0.8 | 1.03 | 1 | 0.926 | 0.836 | 0.995 | 1.22 | 1.07 | 1.02 | 1.02 |
| NCI-H2087 | 1.31 | 0.929 | 0.944 | 0.662 | 0.601 | 0.966 | 0.976 | 0.942 | 0.92 | 1.07 | 0.773 | 1.12 | 0.952 | 0.685 | 0.808 |
| NCI-H2126 | 1.07 | 0.984 | 0.982 | 1.01 | 0.907 | 0.73 | 0.724 | 0.706 | 0.691 | 0.717 | 1.04 | 1.13 | 1.2 |  | 1.16 |
| NCI-H2228 | 1.12 | 0.845 | 0.777 | 0.609 | 0.719 | 0.629 | 0.733 | 0.718 | 0.371 | 0.328 | 0.84 | 0.874 | 0.833 | 0.647 | 0.346 |
| NCI-H2347 | 1.09 | 0.877 | 0.877 | 0.765 | 0.583 | 0.913 |  | 1.03 |  | 0.993 | 1.02 | 0.919 | 1.15 | 0.95 | 1.14 |
| NCI-H2405 | 1.09 | 0.884 | 0.945 | 1.02 | 0.853 | 0.885 | 0.897 | 0.882 | 1.04 | 0.919 | 1 | 0.997 | 1.04 | 1.09 |  |
| NCI-H3122 | 1 | 0.966 | 0.946 | 0.865 | 0.607 | 1.02 | 1.03 | 1.08 | 1.01 | 1 | 0.96 | 0.942 | 1.09 | 0.889 | 0.989 |
| PC-3 [JPC-3] | 1.06 | 0.907 | 1.12 | 0.989 | 1.1 | 0.935 | 0.977 | 1.04 | 0.9 | 0.973 | 0.772 | 0.948 | 0.833 | 0.878 | 0.837 |
| PC-14 | 1.14 | 0.849 | 0.954 | 0.682 | 0.285 | 0.913 |  | 0.974 | 0.905 | 1.02 | 0.892 | 0.742 | 0.905 | 0.805 | 0.961 |
| RERF-LC-KJ | 1.06 | 0.943 | 0.947 | 0.971 | 0.89 | 0.972 | 0.94 |  | 0.935 |  | 1.02 | 0.951 | 1.1 | 1 | 1.09 |
| SK-LU-1 | 1.13 | 0.906 | 0.926 | 0.735 | 0.44 | 1.07 | 1.12 | 1.22 | 1.14 | 1.11 | 1.19 | 1.13 | 1.46 | 0.794 | 1.3 |
| SW 1573 | 1.1 | 0.896 | 0.825 | 0.633 | 0.512 | 0.707 | 0.73 | 0.802 | 0.802 |  |  | 1.04 | 1.04 | 1.19 | 0.836 |
| UMC-11 | 1.03 | 0.894 | 0.758 | 0.492 | 0.373 |  | 1.04 |  | 1.16 | 0.96 | 0.615 | 0.989 | 0.695 | 0.199 | 0.9 |
